# Paper PMC2707017, “Synthesis and enzymatic evaluation of 2- and 4-aminothiazole-based inhibitors of neuronal nitric oxide synthase” (Beilstein Journal of Organic Chemistry, 2009)
# Columns and labels:
# bovine eNOS [1] = target: T1, bovine eNOS (Bos taurus, UniProt P29473); details: nNOS over eNOS; cited from earlier work
# rat nNOS [2] = target: T2, rat nNOS (Rattus norvegicus, UniProt P29476); details: cited from earlier work
# neuronal damage = tested on: neuronal damage; set-up: method as in PMID 19235180; details: intravenous administration, cerebral palsy rabbit model; cited from earlier work
# bovine eNOS [3] = target: T1, bovine eNOS; experiment: hemoglobin capture assay, eNOS
# Description: (§1) The NOS isoforms used were recombinant enzymes overexpressed in E. coli. Rat nNOS [6], bovine eNOS [7], and murine macrophage iNOS [8], and were overexpressed and isolated as reported. The formation of nitric oxide was monitored using a hemoglobin capture assay as described previously. Briefly, a solution of nNOS or eNOS containing 10 µM L-arginine, 1.6 mM CaCl2, 11.6 µg/mL calmodulin, 100 µM DTT, 100 µM NADPH, 6.5 µM H4B, 125 µg/mL oxyhemoglobin, and varying concentrations of inhibitor in 100 mM Hepes (pH 7.4) was monitored at 30 °C. For the determination of inhibition of iNOS, no additional Ca^2+ or calmodulin were added. The assay was initiated by the addition of enzyme, and the absorption of UV light at 400 nm was recorded over one minute. As NO was evolved and coordinated to the hemoglobin, the absorption at 400 nm increased, producing a value for the enzyme velocity under these conditions. A value for the initial rate was obtained when no inhibitor was added (v0). The velocity of the enzyme (v) was then determined in the presence of varying concentrations of inhibitor, until a concentration of inhibitor that reduced the enzyme velocity to half its initial value (v/v0 ~ 0.5) was discovered. Concentrations of inhibitor above and below this value were tested and a graph of v/v0 versus inhibitor concentration ([I]) was plotted. […]
# murine iNOS = murine iNOS (Mus musculus, UniProt P29477); experiment: hemoglobin capture assay, iNOS
# Description: as §1
# [4] = set-up: method as in printed; details: aminothiazole ring nitrogen; stated without measurement, ref not given; cited from earlier work
# rat nNOS [5] = target: T2, rat nNOS; experiment: hemoglobin capture assay, nNOS
# Description: In vitro enzyme assay. The NOS isoforms used were recombinant enzymes overexpressed in E. coli. Rat nNOS [6], bovine eNOS [7], and murine macrophage iNOS [8], and were overexpressed and isolated as reported. The formation of nitric oxide was monitored using a hemoglobin capture assay as described previously. […] For the determination of inhibition of iNOS, no additional Ca^2+ or calmodulin were added. The assay was initiated by the addition of enzyme, and the absorption of UV light at 400 nm was recorded over one minute. As NO was evolved and coordinated to the hemoglobin, the absorption at 400 nm increased, producing a value for the enzyme velocity under these conditions. A value for the initial rate was obtained when no inhibitor was added (v0). The velocity of the enzyme (v) was then determined in the presence of varying concentrations of inhibitor, until a concentration of inhibitor that reduced the enzyme velocity to half its initial value (v/v0 ~ 0.5) was discovered. Concentrations of inhibitor above and below this value were tested and a graph of v/v0 versus inhibitor concentration ([I]) was plotted. Experiments were repeated at least three times and until a R^2 >0.99 was obtained. Extrapolation of this graph allowed the determination of an IC50 value. The Ki can be estimated from the IC50 if the Km for the substrate is known, using the equations below.
smiles,measurement,setting,value
NCCN[C@@H]1CNC[C@@H]1Cc1cccc(N)n1 (relative stereo) [Compound 1],selectivity over eNOS,bovine eNOS [1],more than 1000 fold
same,nNOS inhibitory potency,rat nNOS [2],nanomolar
Cc1cc(N)nc(C[C@H]2CNC[C@H]2NCCNCc2ccc(Cl)cc2)c1 (relative stereo) [Compound 2],protection against neuronal damage,neuronal damage,significant protection against neuronal damage
Nc1nc(CC2CNCC2NCCNCc2ccc(Cl)cc2)cs1 (stereo not shown) [Compound 3],Ki,bovine eNOS [3],1000 µM
same,Ki,murine iNOS,50 µM
same,pKa of ring nitrogen,[4],≈ 6
same,Ki,rat nNOS [5],10 µM
